Test results from ChEMBL document CHEMBL3351551, “Neuraminidase inhibitory activities of quaternary isoquinoline alkaloids from Corydalis turtschaninovii rhizome” (Bioorg Med Chem, 2014).
Values after ≈ are worked out from the molar mass of the structure shown.

Experiments:
Neuraminidase = Neuraminidase (Influenza A virus (strain A/USSR/90/1977 H1N1), UniProt P03469); test: Inhibition of recombinant Influenza A virus H1N1 neuraminidase using 4-methylumbelliferyl-alpha-D-Nacetylneuraminic acid sodium salt hydrate as substrate by fluorometry
Chain of Neuraminidase (P03469 whole entry): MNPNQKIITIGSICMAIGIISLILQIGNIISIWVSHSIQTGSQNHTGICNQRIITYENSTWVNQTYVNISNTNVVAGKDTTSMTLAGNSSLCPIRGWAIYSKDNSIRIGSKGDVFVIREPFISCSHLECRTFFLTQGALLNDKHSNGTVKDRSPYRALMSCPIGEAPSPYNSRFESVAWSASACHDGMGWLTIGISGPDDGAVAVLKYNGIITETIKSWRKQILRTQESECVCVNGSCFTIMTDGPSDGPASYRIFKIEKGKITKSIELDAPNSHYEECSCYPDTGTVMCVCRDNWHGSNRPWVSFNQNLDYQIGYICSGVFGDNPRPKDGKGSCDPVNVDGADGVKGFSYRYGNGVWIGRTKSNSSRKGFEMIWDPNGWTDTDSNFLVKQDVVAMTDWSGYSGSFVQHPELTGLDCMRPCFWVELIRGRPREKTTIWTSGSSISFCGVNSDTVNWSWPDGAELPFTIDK

Clostridium perfringens [1] = test: Antibacterial activity against Clostridium perfringens in tryptic soy broth after 24 hrs; type: functional
[2] = Inhibition of Clostridium perfringens neuraminidase by Dixon plot
[3] = Inhibition of Clostridium perfringens neuraminidase 4-methylumbelliferyl-alpha-D-Nacetylneuraminic acid sodium salt hydrate as substrate by fluorometry
Clostridium perfringens [4] = test: Inhibition of Clostridium perfringens neuraminidase 4-methylumbelliferyl-alpha-D-Nacetylneuraminic acid sodium salt hydrate as substrate at 100 uM by fluorometry

SMILES | IC50 (Neuraminidase) [µM] | MIC (Clostridium perfringens [1]) [µM] | Ki [2] [µM] | IC50 [3] [µM] | inhibition (Clostridium perfringens [4]) [%]
COc1ccc2cc3[n+](cc2c1OC)CCc1cc2c(cc1-3)OCO2 [BERBERINE] | 38.5 | 52.2 | 11.9 | 13.5 | –
COc1cc2c(cc1OC)[C@H]1[C@@H](C)c3ccc(OC)c(OC)c3CN1CC2 | – | – | – | – | 12.7
c1c2c(cc3c1OCO3)-c1cc3cc4c(cc3c[n+]1CC2)OCO4 | 126 | – | – | 65.2 | –
COc1cc2c(cc1OC)-c1c(OC)c(OC)cc3c1[C@H](C2)N(C)CC3 [GLAUCINE] | – | – | – | 96.9 | –
COc1cc2c(cc1O)CC[n+]1cc3c(OC)c(OC)ccc3cc1-2 [JATRORRHIZINE] | 66.2 | – | – | 37 | –
COc1cc2c(cc1OC)-c1c(C)c3cc(OC)c(OC)cc3c[n+]1CC2 | – | – | – | 32.6 | –
c1c2c(cc3c1OCO3)-c1cc3ccc4c(c3c[n+]1CC2)OCO4 [COPTISINE] | 25.3 | – | – | 25.1 | –
COc1cc2c(cc1OC)-c1cc3ccc(OC)c(OC)c3c[n+]1CC2 [PALMITINE] | 33.1 | 44.7 | 16.9 | 12.8 | –
COc1cc(/C=C/C(=O)CC(=O)/C=C/c2ccc(O)c(OC)c2)ccc1O [CURCUMIN] | – | – | – | 6 | –
c1cc2c(c3c1CC1c4cc5c(cc4CCN1C3)OCO5)OCO2 (configuration not stated) | – | – | – | – | 4.7
COc1cc2c(cc1O)CC[n+]1cc3c(OC)c(OC)ccc3c(C)c1-2 | 80.5 | – | – | 41.3 | –
CC1(C)S[C@@H]2[C@H](NC(=O)[C@H](N)c3ccccc3)C(=O)N2[C@H]1C(=O)O [AMPICILLIN] | – | 0.3 (≈ 0.105 µg/mL) | – | – | –
